According to patent US5840690A, “Regulation of cell proliferation and differentation using peptides” (priority 1995, dated 1998):
Non-standard residues stand in square brackets, D forms with d. Residues, ends and D or L forms follow the SMILES beside them. Nle = CCCC[C@H](N)C(=O)O

Columns and labels:
[1] = test system: psoriasis; details: provided either orally or topically; cited from earlier work
[2] = test system: cultured human keratinocytes; assay: Keratinocyte culture: counts of total cells, basal cells and cornified envelopes; format: cell-based; details: for total number of basal cells: one week of dosing; for proliferation and terminal differentiation of cultured human keratinocytes (conclusion from the results): peptide by itself
Method: Keratinocytes were grown in culture as follows. NIH 3T3 cells were plated at 0.5×10^5 cells per 35-mm tissue-culture dish, and two days later were lethally irradiated with a cobalt-60 source (5000 rads). Keratinocytes were obtained from neonatal foreskin after overnight trypsinization at 4° C. and treatment with 0.02% EDTA. Keratinocytes were plated in 2 ml of serum-free medium per dish on the lethally irradiated 3T3 cells. Each experiment was performed on primary or secondary keratinocyte cultures obtained from different skin samples.
In addition, 1,25-(OH)2 D3 was tested, alone and in combination with PTH (7-34), and PTH (1-34) and PTH (7-34) were tested together.
Beginning at one week in culture, groups of triplicate plates of keratinocytes were incubated with the aforementioned compounds or vehicle alone. After one week of dosing, the medium was removed from each culture and centrifuged, and the pellet was resuspended for the counting of the desquamated floater cells. A hemacytometer was used to count the different cell types under a phase-contrast microscope. The attached cells were then trypsinized for 30-40 min with 0.1 EDTA and 0.1% trypsin and then neutralized with medium. The keratinocytes were pelleted and resuspended in a known volume of medium. Duplicate aliquots were taken for counting the basal (small, rounded) and squamous (larger, irregular-shaped, flattened) cells. The remaining cells were pelleted and treated with 10 mM Tris-HCl (pH 7.4) with 1% beta-mercaptoethanol and 1% sodium dodecyl sulfate (SDS) at room temperature for 10 min. Only cells with cornified envelopes were present after this treatment.
Each culture was thus evaluated for its total cell content, number of basal cells, and cornified envelopes, as described above.

[3] = test system: wounds made through the skin with a 6 mm dermal biopsy punch; assay: In vivo skin punch assay; design: species or system Sprague-Dawley rats; details: rats, 2.0 μg topically in normal saline, immediately after biopsy and each day for 3 days, FIG. 8
Method: Male Sprague-Dawley rats were anesthetized by intraperitoneal injection of sodium pentobarbital, their dorsal skin shaved, and wounds made through the skin with a 6 mm dermal biopsy punch. Immediately after the biopsy, and each subsequent day for 3 days, groups of rats received topically 2.0 μg of human PTH (1-34) in normal saline or human PTH (7-34) in normal saline; a control group received normal saline without peptide. Four rats from each group were killed by asphyxiation in a chamber of carbon dioxide, and the extent of wound healing was evaluated as follows. Wounds were photographed with the wound surface perpendicular to the axis of the lens. After development of the film, wound images were projected on to paper at a fixed distance, traced with a pencil, and cut out with sharp scissors. The relative sizes of the wounds were assessed by weighing the cut-out paper tracings. Percent healing was calculated from the average decrease in wound area for each group.

[4] = test system: PTH-mediated elevation of plasma calcium; details: cited from earlier work
[5] = test system: PTH-stimulated biologic responses; details: cited from earlier work
[6] = PTH (7-34) together with the agonist
[7] = peptide alone at 10^-8 M and 10^-7 M

Row | Structure (SMILES) | value in the treatment of psoriasis [1] | keratinocyte antiproliferative and terminal differentiation-inducing activities of 1,25(OH)2 D3 ([2]; PTH (7-34) against 1,25(OH)2 D3) | antiproliferative and differentiation-inducing activities of PTH (1-34) and CFF (1-34) (antagonist) ([2]; PTH (7-34) against PTH (1-34) and CFF (1-34)) | response to 1,25(OH)2 D3 (cell numbers) ([2]; PTH (7-34) at 10^-7 M co-incubated with 1,25(OH)2 D3 at 10^-8 M) | effect of PTH (1-34) and CFF (1-34) on total number of cells and total number of basal cells ([2]; PTH (7-34) co-incubated with hPTH (1-34) or CFF (1-34)) | antiproliferative and differentiation-inducing activities of each of 1,25(OH)2 D3, PTH (1-34), and CFF (1-34) (conclusion) [2, 6] | effect of 1,25(OH)2 D3, PTH (1-34), and CFF (1-34) on cornified envelope development [2, 6] | total number of cornified envelopes, percent of control [2, 7] | total number of basal cells [2, 7] | proliferation and terminal differentiation of cultured human keratinocytes (conclusion from the results) [2] | wound healing (percent healing from decrease in wound area) [3] | PTH-like agonist activity ([4]; rat, in vivo) | PTH-mediated elevation of plasma calcium ([4]; thyroparathyroidectomized rats in vivo) | total number of cornified envelopes, percent of control ([2]; compound alone, FIGS. 6 and 7) | proliferation of keratinocytes (agonist) ([2]; concentration not given) | terminal differentiation of keratinocytes (agonist) ([2]; concentration not given) | total number of basal cells ([2]; peptide alone at 10^-10 and 10^-8 M) | PTH-stimulated biologic responses in vitro [5]
1 | C=C1/C(=C\C=C2/CCC[C@]3(C)[C@@H]([C@H](C)CC[C@@H](O)C(C)C)CC[C@@H]23)C[C@@H](O)C[C@@H]1O [1,24-dihydroxyvitamin D3] | of value in the treatment of psoriasis | – | – | – | – | – | – | – | – | – | – | – | – | – | – | – | – | –
2 | CSCC[C@H](NC(=O)[C@H](CO)NC(=O)[C@H](CO)NC(=O)[C@H](CC(C)C)NC(=O)[C@H](Cc1c[nH]cn1)NC(=O)[C@H](CCCCN)NC(=O)CNC(=O)[C@H](CC(C)C)NC(=O)[C@H](CC(N)=O)NC(=O)[C@H](Cc1c[nH]cn1)NC(=O)[C@H](CCSC)NC(=O)[C@@H](N)Cc1ccccc1)C(=O)N[C@@H](CCC(=O)O)C(=O)N[C@@H](CCCNC(=N)N)C(=O)N[C@H](C(=O)N[C@@H](CCC(=O)O)C(=O)N[C@@H](Cc1c[nH]c2ccccc12)C(=O)N[C@@H](CC(C)C)C(=O)N[C@@H](CCCNC(=N)N)C(=O)N[C@@H](CCCCN)C(=O)N[C@@H](CCCCN)C(=O)N[C@@H](CC(C)C)C(=O)N[C@@H](CCC(N)=O)C(=O)N[C@@H](CC(=O)O)C(=O)N[C@H](C(=O)N[C@@H](Cc1c[nH]cn1)C(=O)N[C@@H](CC(N)=O)C(=O)N[C@@H](Cc1ccc(O)cc1)C(N)=O)C(C)C)C(C)C [PTH (7-34), [Tyr^34] bovine PTH (7-34) amide] | – | blocks | blocks | significantly decreased the response | inhibited the effect | can block | inhibited the effect | no effect | no effect | substantially no effect | biologically effective in enhancing wound healing | devoid of PTH-like agonist activity | can inhibit | – | – | – | – | –
3 | CCCC[C@H](NC(=O)[C@H](CO)NC(=O)[C@H](CO)NC(=O)[C@H](CC(C)C)NC(=O)[C@H](Cc1c[nH]cn1)NC(=O)[C@H](CCCCN)NC(=O)CNC(=O)[C@H](CC(C)C)NC(=O)[C@H](CC(N)=O)NC(=O)[C@H](Cc1c[nH]cn1)NC(=O)[C@H](CCCC)NC(=O)[C@H](Cc1ccccc1)NC(=O)[C@H](CCC(N)=O)NC(=O)[C@@H](NC(=O)[C@H](CCC(=O)O)NC(=O)[C@@H](N)CO)[C@@H](C)CC)C(=O)N[C@@H](CCC(=O)O)C(=O)N[C@@H](CCCNC(=N)N)C(=O)N[C@H](C(=O)N[C@@H](CCC(=O)O)C(=O)N[C@@H](Cc1c[nH]c2ccccc12)C(=O)N[C@@H](CC(C)C)C(=O)N[C@@H](CCCNC(=N)N)C(=O)N[C@@H](CCCCN)C(=O)N[C@@H](CCCCN)C(=O)N[C@@H](CC(C)C)C(=O)N[C@@H](CCC(N)=O)C(=O)N[C@@H](CC(=O)O)C(=O)N[C@H](C(=O)N[C@@H](Cc1c[nH]cn1)C(=O)N[C@@H](CC(N)=O)C(=O)N[C@@H](Cc1ccc(O)cc1)C(N)=O)C(C)C)C(C)C [PTH (3-34), [Nle^8, Nle^18, Tyr^34] bovine (3-34) PTH amide] (H-SEIQF[Nle]HNLGKHLSS[Nle]ERVEWLRKKLQDVHNY-NH2) | – | – | – | – | – | – | – | – | – | have the same effect as PTH (1-34) | – | – | – | increased, in a dose-dependent manner | inhibits proliferation | induces terminal differentiation | significantly decreased | can be inhibited
